Experimental findings from patent publication US12486227B2, “Small molecules for cancer therapy that reduce the expression of transcription factors KLF5 and EGR-1” (University of Florida Research Foundation, Incorporated, priority 2019, dated 2025) are described below.

Like-named read-outs stand apart in the source and are kept apart here.

In one data set the test system is human KLF5 promoter. Put plainly: KLF5 promoter activity luciferase assay in DLD-1/pGL4.18hKLF5p cells. It counts as cell-based. The settings on record: Homo sapiens, DLD-1. How it is done:
To examine the impact of these compounds on viability of CRC cell lines, we performed cell proliferation and cell growth assays using DLD-1 and HCT116 CRC cells. […] KLF5 promoter activity assay. DLD-1/pGL4.18hKLF5p cells were seeded in 96 well plate format and treated with DMSO or with test compounds dissolved in DMSO in the range of 0.001 to 20 μM final concentration for 24 h and the human KLF5 promoter activity was determined with the ONE-Glo luciferase assay system (Promega) using a SpectramMax M3 (Molecular Devices) plate reader. The IC50 values were calculated using GraphPad Prism version 5.00 for Windows (GraphPad Software) (22).

The subject of data set [1] is HT-29 colorectal cancer cell line. Put plainly: MTT growth assay, HT-29. The format is cell-based. The settings on record: Homo sapiens, Table 1. The text has this:
(§1) The observed activity is greater than that previously seen for ML264.

Data set [2] concerns DLD-1, HCT-116, HT-29, and SW-620 colorectal cancer cell lines. Put plainly: MTT assays for blocking growth of colorectal cancer cell lines (range over four lines). The format is cell-based. Conditions: Homo sapiens; DLD-1, HCT-116, HT-29, SW-620.
Description: as §1
On the technique in general: Formazan colour is commonly taken as a measure of viable cells.

Another data set concerns MAPK pathway. Put plainly: Western blot of MAPK signaling pathway components. The format is cell-based, human. Conditions: DLD-1 and HCT116, 10 μM, 72 h. The text has this: SR18662 negatively regulates MAPK and WNT signaling pathway and cyclin levels. Myriad publications have shown that in both in vitro and in vivo contexts KLF5 is regulated by MAPK and WNT signaling pathways and that KLF5, in turn, has the ability to modulate the activity of these pathways (14, 18, 26-32). We have previously shown that treatment of CRCs with ML264 results in decreased activity of both the MAPK and WNT signaling pathways (24). Because SR15006 and SRI8662 are structurally related to ML264, we decided to investigate their ability to alter the expression levels of the components of these pathways. Thus, we treated DLD-1 and HCT116 CRCs with DMSO (vehicle) and tested compounds at 1 μM or 10 μM, collecting the cells for western blot analysis at 24, 48, and 72 h. […] Similar effects were seen when both cell lines were treated these compounds at 1 μM. Furthermore, the inhibitory effects of SR18662 on the components of the MAPK signaling pathway we observed at earlier time points than were apparent following treatment with ML264 or SR15006.
(§2) Western blot analysis. Total protein was extracted from cells with Laemmli buffer and the analysis was performed as described previously (24).
In general terms: In western blotting, separated proteins are transferred to a membrane and probed.

The next data set has as its system Cyclin D1, E, A2, and B1. Put plainly: Western blot of cyclin levels. The format is cell-based, human. Conditions: DLD-1 and HCT116, 1 μM or 10 μM, 72 h.
Description: Cyclins and their appropriate cyclin-dependent kinases form a regulatory network that allow cells to progress through the cell cycle (39, 40). […] SR15006, or SR18662, as compared to vehicle-treated cells. Thus, we investigated if these changes are accompanied by differences in the expression levels of cyclins. We focused our attention on Cyclin D1, E, A2, and B1, as we have previously shown that ML264 has inhibitory effect on their levels (24). […] Additionally, in contrast to ML264 or SR15006, SR18862 induced apoptosis and cell death.
as §2

The subject of data set [3] is DLD-1-derived tumor xenografts. Put plainly: DLD-1 xenograft tumor growth in nude mice. It counts as in vivo, mouse. The protocol: SR18862 inhibits the growth of CRC xenografts in vivo. To evaluate SRI8662 in an in vivo model we used CRC cells for a mouse xenograft study. As described in more detail in the Examples section, nude mice were injected with DLD-1 CRC cells. Tumors were allowed to grow to an approximate size of 100 mm^3, and then mice were injected with vehicle or with varied concentrations of SR18662, given once a day or twice a day for five days, followed by two days without injection, and then followed by five days with injections. The experiment was completed the day after the last injection. […] Significant differences in tumor size are apparent at the end of the treatment schedule (FIG. 6B). To further characterize the impact of SR18662 on the features of isolated tumors, we compared vehicle-treated mice with mice that had been treated with SR18662 twice a day. […] Because SR18662 had induced cell apoptosis and death in the in vitro setting, we stained the xenografts with PanCK and TUNEL to estimate the levels of apoptosis in the in vivo context.
Xenografts. All mice studies were approved by the Stony Brook University Institutional Animal Care and Use Committee (IACUC) and performed in accordance with institutional policies and NIH guidelines. […] Tumor volume was determined by caliper measurement and calculated by the established method (25). […] Mice were monitored and weighed every two days. […]

Data set [4] in a line: Oral bioavailability in mice. It counts as in vivo.

For orientation: IC50 means the midpoint of a concentration-inhibition curve. On to `CS(=O)(=O)N1CCN(C(=O)CNC(=O)/C=C/c2ccc(Cl)c(Cl)c2)CC1` [Example 9, (E)-3-(3,4-dichlorophenyl)-N-(2-(4-(methylsulfonyl)piperazin-1-yl)-2-oxoethyl)acrylamide], for which the IC50 was determined as 4.4 nM with human KLF5 promoter (24 h treatment, FIG. 1B, read-out: IC50, human KLF5 promoter activity); 4.4 nM in the data set on human KLF5 promoter (Table 1, comparison of ML264 and SR18662, read-out: luciferase IC50). The EC50 in the data set with human KLF5 promoter (Table 2, read-out: Approximate potency (EC50 · mol/L) (luciferase)) was 4.4 nM; in data set [1], 40 nM; in data set [2], 1.74 nM. Further, in the data set on MAPK pathway, the “expression levels of MAPK pathway components” value was “negatively regulated the expression levels of the components of the MAPK pathway”. For the same compound, the levels of cyclins result in the data set with Cyclin D1, E, A2, and B1 is reported as “significant reduction in the levels of tested cyclins”. In data set [3] (i.p., 5-25 mg/kg once or twice a day), the “tumor growth vs vehicle-treated mice” value is “dose-dependent reduction in tumor growth”. For the same compound, the “growth of CRC xenografts” value in data set [3] (once a day 10 mg/kg) was “strong inhibitory effects”. In addition, the oral bioavailability entry in data set [4] was “orally bioavailable”.
